The source of these data is paper PMC6332226, “Potent PPARγ Ligands from Swietenia macrophylla Are Capable of Stimulating Glucose Uptake in Muscle Cells” (Molecules, 2015).

For assay [1], the system named is differentiated 3T3-L1 adipocyte cells. Kind of assay: mRNA expression of PPARγ and adipogenic markers by quantitative RT-PCR. The format is cell-based. To be noted: 7 days, 2 µM compound; for expression levels of adipogenic markers (adiponectin, adipsin, PPARγ, GLUT4): 50 nM rosiglitazone or 1 μM insulin, normalized to β-actin, DMSO = 1; for PPARγ mRNA expression, fold elevation: vs DMSO. As to the method:
Figure 5 The analysis of PPARγ and selected adipogenic gene expression in differentiated 3T3-L1 adipocyte cells with quantitative RT-PCR. […] The expression values were normalized against a housekeeping gene, β-actin.
For the gene expression study, mature 3T3-L1 adipocytes were lysed 7 days after the induction of cellular differentiation. The total RNA samples were prepared according to the manufacturer's protocol (TRIzol reagent, Invitrogen Life Technologies, Carlsbad, CA, USA). The mRNA expression of the target genes was measured by quantitative RT-PCR with an iCycler iQ5 PCR Thermal Cycler (Bio-Rad Laboratories, Hercules, CA, USA). The primers for the adipogenesis-related genes, adiponectin, adipsin, GLUT4 and PPARγ, were designed using Primer 3 software (Table 1). Real-time PCR was performed according to the manufacturer’s protocol (SYBR-Green One-Step Quantitative RT-PCR). Briefly, 5 ng of total RNA, 50 nM of each primer, iScript RT enzyme and the universal SYBR Green reaction mix (Bio-Rad Laboratories) were mixed well in a final volume of 30 µL. All the PCR reactions were performed as follows: 1 cycle of 50 °C for 2 min and 95 °C for 10 min, followed by 40 cycles of 95 °C for 15 s and 60 °C for 1 min. The PCR products were subjected to a melting-curve analysis. The expression levels were normalized against a housekeeping gene, β-actin, and the expression levels of the genes in the DMSO treated cells were designated as 1.

The subject of assay [2] is 3T3-L1 preadipocyte cells. Briefly: Adipocyte differentiation assay, Oil Red O staining of lipid droplets. The format is cell-based. Conditions: for first appearance of lipid droplets after treatment: 3T3-L1 cells; for induction of 3T3-L1 differentiation into lipid-producing adipocytes: 2–50 µM, lower level than insulin and rosiglitazone; for ORO stained lipid droplets, fold higher than vehicle treated cells: compounds 2–50 µM. As for the experimental part:
Figure 4 The semi-quantification of lipid droplets produced by differentiated 3T3-L1 cells at day 7 after the compound treatment. The quantification was performed by dissolving the cells in isopropanol and measuring the absorbance read out at 510 nm. […] The symbol ** denotes a significant difference at p < 0.01 compared with DMSO (Tukey’s test, n = 3).
3T3-L1 and C2C12 cells were purchased from the American Type Culture Collection (Manassas, VA, USA). The 3T3-L1 and C2C12 cells were maintained in DMEM medium supplemented with 10% (v/v) bovine serum and 10% (v/v) fetal bovine serum (FBS), respectively. The differentiation of adipocytes was initiated two days after the cells reached confluence by adding 0.5 mM isobutyl methylxanthine (IBMX), 1 µM dexamethasone and 1 µg/mL insulin to DMEM containing 10% (v/v) FBS. Two days later, the differentiation medium was replaced by DMEM containing 10% (v/v) FBS and 1 µg/mL insulin. These differentiated cells were stabilized in DMEM + 10% (v/v) FBS for another 2 days. C2C12 myocytes were induced to differentiate by substituting 10% (v/v) FBS with 10% (v/v) horse serum once the cells reached confluence. Fresh differentiation medium was replaced every two days until the myotube formation was complete.
Adipocyte differentiation is one of the major cellular responses upon PPARγ activation. 3T3-L1 pre-adipocyte cells were seeded on 24-well plates at 5 × 10^4 cells per well. Two days after reaching confluence, the cells were triggered to differentiate by insulin (positive control), DMSO (negative control), TZD, and the three natural compounds isolated from S. macrophylla (6OA, DS and Sw). […] For visualization, lipid droplets were stained by Oil Red O (ORO). The trapped ORO between the lipid droplets was then dissolved in absolute isopropanol, and the absorbance of the dissolved ORO was semi-quantitatively measured by a SpectraMax M5 multi-detection microplate reader (Molecular Devices) at a wavelength of 510 nm.

Assay [3] deals with C2C12 muscle cells. Briefly: GLUT4 translocation assay (immunofluorescence). The format is cell-based. Conditions: for GLUT4 translocation to the plasma membrane / time at which GLUT4 translocation occurs after treatment: 2 µM compound. The source says:
(§1) Figure 6 The compounds affected the distribution of GLUT4 proteins and facilitated glucose uptake in the C2C12 muscle cells. The GLUT4 proteins were visualized via the green fluorescent FITC labeled-GLUT4 antibody. […] The white arrows show the presence of GLUT4 near the plasma membrane, and the red arrows show the presence of GLUT4 within the nucleus. The figures denote the time lapse (m = minutes) after treatment. The images were captured using a LSM710 laser scanning microscope with a 63X oil immersion objective (Carl Zeiss, Oberkochen, Germany); (F) The amount of 2-NBDG uptake in the cells after treatment 6OA, DS and Sw or insulin was quantified at OD 510 nm. The fold increase was plotted against the treated concentration of natural compounds. The symbol * denotes a significant difference at p < 0.05 compared with DMSO (Tukey’s test, n = 6), DMSO = 1.
The differentiated C2C12 muscle cells cultured in 8-well chamber slides were treated with DMSO, insulin and S. macrophylla compounds for 15, 30, 60 and 120 min in DMEM low glucose + 0.1% (w/v) BSA. The cells were then fixed with 4% (v/v) paraformaldehyde, washed with MAXwash^TM washing medium (Active Motif, Tokyo, Japan) and blocked with Maxblock^TM blocking medium (Active Motif). The cells were incubated with the GLUT4 antibody for 16 h at 4 °C and then with the fluorescent conjugated secondary antibody for 2 h at room temperature. 100 µL of Fluoroshield^TM with DAPI (Sigma-Aldrich, St. Louis, MO, USA) was added to each well and mounted with a cover slip for imaging.

In assay [4] the test system is C2C12 muscle cells. Kind of assay: Glucose uptake assay with 2-NBDG. The format is cell-based. To be noted: 2 µM compound, 60 min treatment.
Source text: as §1
C2C12 cells were grown and differentiated in 96-well culture plates. The differentiated C2C12 muscle cells were treated with DMSO, insulin, and S. macrophylla compounds for 60 min in DMEM + 0.1% (w/v) BSA. After washing three times with Krebs-Ringer Phosphate H (KRPH) buffer + 0.1% (w/v) BSA, the cells were incubated with 100 μM 2-NBDG for 15 min. After washing three times with KRPH buffer + 0.1% (w/v) BSA, the uptake of 2-NBDG was observed under a fluorescence microscope, and the fluorescence of 2-NBDG was measured with a microplate reader (Perkin Elmer, Waltham, MA, USA).

Another assay concerns the target T1, recombinant PPARγ (Homo sapiens, UniProt P37231).
T1 construct: amino acid positions 107–477 for PPARγ; His tag (pET28a) (N); made in house; host or cells: E. coli BL21
T1 sequence (P37231 107-477 isoform P37231-2): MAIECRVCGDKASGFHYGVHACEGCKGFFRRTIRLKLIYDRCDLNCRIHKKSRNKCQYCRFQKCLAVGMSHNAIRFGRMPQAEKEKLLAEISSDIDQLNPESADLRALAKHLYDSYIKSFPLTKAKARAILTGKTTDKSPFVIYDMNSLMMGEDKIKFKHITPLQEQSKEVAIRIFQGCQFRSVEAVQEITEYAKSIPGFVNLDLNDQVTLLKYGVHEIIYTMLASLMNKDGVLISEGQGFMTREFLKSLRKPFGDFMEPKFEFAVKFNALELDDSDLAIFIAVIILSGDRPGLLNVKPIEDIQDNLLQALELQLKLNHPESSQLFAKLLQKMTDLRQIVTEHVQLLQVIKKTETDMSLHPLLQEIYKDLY
T1 sequence (Q09472 39-221 partner limits assumed): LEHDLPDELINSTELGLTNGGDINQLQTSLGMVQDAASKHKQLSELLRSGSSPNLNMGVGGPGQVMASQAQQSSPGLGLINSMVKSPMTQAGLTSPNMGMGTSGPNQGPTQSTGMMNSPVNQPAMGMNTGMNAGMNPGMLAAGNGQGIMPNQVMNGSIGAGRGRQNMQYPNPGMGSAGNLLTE
Briefly: ELISA PPARγ-binding assay (ligand-dependent binding of PPARγ to p300 coactivator). Conditions: highest binding; p300-coated plate, absorbance 405 nm. (ELISA stands for enzyme-linked immunosorbent assay.)

The subject of the next assay is diabetic rats. Conditions: diabetic rats ref 5; cited from earlier work.

Procedure for recombinant PPARγ: The truncated p300 recombinant protein included a specific binding domain, LXXLL, for protein-protein interactions between p300 and PPARγ.
The ELISA binding assay used is based on the principle of binding between the ligand-dependent PPARγ and its coactivator. Briefly, 5 µg of purified recombinant p300, a PPARγ coactivator, was used to coat a 96-well microtitre plate in the presence of coating buffer (150 mM Na2CO3, 350 mM NaHCO3, pH 9.6). The plate was incubated for 2 h at room temperature. Nonspecific binding sites were blocked with 100 µL of blocking buffer [2% (w/v) BSA in 10 mM PBS, pH 7.2] for 2 h at room temperature. The recombinant PPARγ cell lysate was prepared by using the freeze/thaw cell lysis method [37]. […] These mixtures were added to the p300-coated 96-well plate, which was then incubated for 1 h at 37 °C. The presence of the PPARγ ligand led to the formation of a p300-PPARγ-ligand complex. The detection of this complex was performed through the addition of 100 µL of anti-PPARγ antibody (1:1000 dilutions) and incubation for 1 h at room temperature. Subsequently, 100 µL of the AP conjugated donkey anti-goat antibody (1:1000 dilutions) was added into each well, and the plates were at room temperature for 1 h. The pNPP substrate solution (100 µL) was added to each well and incubated for 1 h at room temperature in the dark. Finally, 2.0 N sulphuric acid (50 µL per well) was added to each well to stop the enzymatic reaction. The absorbance at 405 nm was detected with a microplate reader (SpectraMax M5, Molecular Devices, Sunnyvale, CA, USA). Throughout the procedures, the microtitre plate was washed three times with washing buffer [10 mM PBS, pH 7.2, containing 0.1% (v/v) Tween 20] after each incubation step.

For the molecule `CN(CCOc1ccc(CC2SC(=O)NC2=O)cc1)c1ccccn1` (stereo not shown) [Rosiglitazone, rosiglitazone, reference compound], the “expression levels of adipogenic markers (adiponectin, adipsin, PPARγ, GLUT4)” value (shortened to “expression levels of adipogenic markers”) in assay [1] is “increase”. The “first appearance of lipid droplets after treatment” value in assay [2] came to 5 days.
`COC(=O)C(OC(C)=O)C1C(C)(C)C(OC(C)=O)C2CC3=C4CC(=O)O[C@@H](c5ccoc5)[C@@]4(C)CCC3[C@@]1(C)C2=O` (stereo partly shown) [DS, diacetyl swietenolide]: in the assay on C2C12 muscle cells [3], the “GLUT4 translocation to the plasma membrane” value is reported as “increase in GLUT4 translocation” and the “time at which GLUT4 translocation occurs after treatment” value (shortened to “time … after treatment”) is ≥ 60 min. Besides, in assay [1], the “PPARγ mRNA expression, fold elevation” value is “five- to six” and the “expression levels of adipogenic markers” value is on record as “increase”. Further, in the assay on C2C12 muscle cells [4], the “glucose (2-NBDG) uptake” value is recorded as “significant increase”. Further, at recombinant PPARγ, the “fold increase of binding between PPARγ and coactivator compared to vehicle (DMSO)” value (“fold increase” below) worked out at 38 fold. Also, in assay [2], the “induction of 3T3-L1 differentiation into lipid-producing adipocytes” value is “induce 3T3-L1 cells differentiation into lipid-producing adipocytes”. In assay [2] (day 7), the “ORO stained lipid droplets, fold higher than vehicle treated cells” value was 1.3–1.6 fold.
Take `C/C=C(\C)C(=O)OC1C2C=C3C(CC[C@@]4(C)C3CC(=O)O[C@H]4c3ccoc3)[C@@](C)(C2=O)C(C(O)C(=O)OC)C1(C)C` (stereo partly shown) [Sw, swietenine]: in the assay with C2C12 muscle cells [3], the “GLUT4 translocation to the plasma membrane” value is given as “increase in GLUT4 translocation” and the “time … after treatment” value turned out to be 15 min. Besides, in assay [1], the “PPARγ mRNA expression, fold elevation” value was “five- to six” and the “expression levels of adipogenic markers” value was “increase”. Besides, the “elevated cholesterol and triglyceride levels” value in the assay with diabetic rats was “attenuate”. Further, the “glucose (2-NBDG) uptake” value in the assay on C2C12 muscle cells [4] is “significant increase”. Also, the “fold increase” value on recombinant PPARγ came out at 36 fold. Besides, the “induction of 3T3-L1 differentiation into lipid-producing adipocytes” value in assay [2] was “induce 3T3-L1 cells differentiation into lipid-producing adipocytes”. For the same molecule, the “ORO stained lipid droplets, fold higher than vehicle treated cells” value in assay [2] (day 7) is listed as 1.3–1.6 fold.
On to “Insulin: known adipocyte differentiation inducer, positive control [reference compound]”, for which, in the assay on C2C12 muscle cells [3] (200 nM insulin), the “time at which GLUT4 translocation occurs after stimulation” value is 15 min. Besides, in assay [1], the “expression levels of adipogenic markers” value is given as “significantly increased”. The “ORO stained lipid droplets, fold higher than vehicle (DMSO)” value in assay [2] (1 µM insulin, day 7) came to 4.8 fold. In assay [2], the “first appearance of lipid droplets after treatment” value is 3 days.
As for `COC(=O)C(OC(C)=O)C1C(C)(C)C(O)C2CC3=C4CC(=O)O[C@@H](c5ccoc5)[C@@]4(C)CCC3[C@@]1(C)C2=O` (stereo partly shown) [6OA, 6-O-acetylswietenolide], in the assay on C2C12 muscle cells [3], the “GLUT4 translocation to the plasma membrane” value is given as “increase in GLUT4 translocation” and the “time … after treatment” value was 15 min. Further, in assay [1], the “PPARγ mRNA expression, fold elevation” value is recorded as “five- to six” and the “expression levels of adipogenic markers” value is on record as “increase”. Further, in the assay with C2C12 muscle cells [4], the “glucose (2-NBDG) uptake” value is “significant increase”. The “fold increase” value at recombinant PPARγ stood at 50 fold. For the same molecule, in assay [2], the “induction of 3T3-L1 differentiation into lipid-producing adipocytes” value was “induce 3T3-L1 cells differentiation into lipid-producing adipocytes”. Also, in assay [2] (day 7), the “ORO stained lipid droplets, fold higher than vehicle treated cells” value was 1.3–1.6 fold.
